Measured values as given in publication PMC7411887, “New Paracyclophanylthiazoles with Anti-Leukemia Activity: Design, Synthesis, Molecular Docking, and Mechanistic Studies” (Molecules, 2020).

Legend:
Experiment in all cases: NCI single-dose screen (SRB)
Type in all cases: cell-based
[1] = tested on: PC-3; conditions: Homo sapiens; Prostate Cancer PC-3; 10^−5 M; read-out: Growth inhibition percentage
Procedure: (§1) The methodology of the NCI anticancer screening was described in detail elsewhere (http://www.dtp.nci.nih.gov). […] Tested compounds were added to the culture at a single concentration (10^−5 M) and the cultures were incubated for 48 h. End-point determinations were made with a protein binding dye, SRB. Results for each tested compound were reported as the percentage growth of the treated cells when compared to the untreated control cells. The percentage growth was evaluated spectrophotometrically versus controls not treated with test agents. All experiments were repeated three times (Table 1).
(§2) Briefly, the protocol was performed on 60 human tumor cell lines derived from different nine neoplastic diseases. […] If the results obtained met selection criteria, then the compound was tested again on all 60 cell lines in 5× 10-fold dilutions with the top dose being 10^−4 M or 150 μg/mL. Detailed methods are described in the Supplementary Materials related to this article.
(§3) on their site (http://www.dtp.nci.nih.gov). But briefly, the protocol performed at sixty human
(§4) National Cancer Institute, Bethesda, USA. If the results obtained meet selection criteria, then the
(§5) 10-4 molar or 150 μg/mL. […]

[2] = tested on: UACC-257; conditions: Homo sapiens; Melanoma UACC-257; 10^−5 M; read-out: Growth inhibition percentage
Procedure: as §1, §2, §3, §4, §5

[3] = tested on: A498; conditions: Homo sapiens; Renal Cancer A498; 10^−5 M; read-out: Growth inhibition percentage
Procedure: as §1, §2, §3, §4, §5

[4] = tested on: MCF7; conditions: Homo sapiens; Breast Cancer MCF7; 10^−5 M; read-out: Growth inhibition percentage
Procedure: as §1, §2, §3, §4, §5

[5] = tested on: HCT-15; conditions: Homo sapiens; Colon Cancer HCT-15; 10^−5 M; read-out: Growth inhibition percentage
Procedure: as §1, §2, §3, §4, §5

[6] = tested on: SK-OV-3; conditions: Homo sapiens; Ovarian Cancer SK-OV-3; 10^−5 M; read-out: Growth inhibition percentage
Procedure: as §1, §2, §3, §4, §5

[7] = tested on: KM12; conditions: Homo sapiens; Colon Cancer KM12; 10^−5 M; read-out: Growth inhibition percentage
Procedure: as §1, §2, §3, §4, §5

[8] = tested on: OVCAR-4; conditions: Homo sapiens; Ovarian Cancer OVCAR-4; 10^−5 M; read-out: Growth inhibition percentage
Procedure: as §1, §2, §3, §4, §5

[9] = tested on: RPMI-8226; conditions: Homo sapiens; Leukemia RPMI-8226; 10^−5 M; read-out: Growth inhibition percentage
Procedure: as §1, §2, §3, §4, §5

[10] = tested on: T-47D; conditions: Homo sapiens, T47D; Breast Cancer T-47D; 10^−5 M; read-out: Growth inhibition percentage
Procedure: as §1, §2, §3, §4, §5

[11] = tested on: CAKI-1; conditions: Homo sapiens; Renal Cancer CAKI-1; 10^−5 M; read-out: Growth inhibition percentage
Procedure: as §1, §2, §3, §4, §5

[12] = tested on: SF-539; conditions: Homo sapiens; CNS Cancer SF-539; 10^−5 M; read-out: Growth inhibition percentage
Procedure: as §1, §2, §3, §4, §5

[13] = tested on: NCI-H522; conditions: Homo sapiens; Non-Small-Cell Lung Cancer NCI-H522; 10^−5 M; read-out: Growth inhibition percentage
Procedure: as §1, §2, §3, §4, §5

[14] = tested on: SF-268; conditions: Homo sapiens; CNS Cancer SF-268; 10^−5 M; read-out: Growth inhibition percentage
Procedure: as §1, §2, §3, §4, §5

[15] = tested on: SF-295; conditions: Homo sapiens; CNS Cancer SF-295; 10^−5 M; read-out: Growth inhibition percentage
Procedure: as §1, §2, §3, §4, §5

[16] = tested on: 786-0; conditions: Homo sapiens; Renal Cancer 786-0; 10^−5 M; read-out: Growth inhibition percentage
Procedure: as §1, §2, §3, §4, §5

[17] = tested on: M14; conditions: Homo sapiens; Melanoma M14; 10^−5 M; read-out: Growth inhibition percentage
Procedure: as §1, §2, §3, §4, §5

[18] = tested on: HOP-92; conditions: Homo sapiens; Non-Small-Cell Lung Cancer HOP-92; 10^−5 M; read-out: Growth inhibition percentage
Procedure: as §1, §2, §3, §4, §5

[19] = tested on: MOLT-4; conditions: Homo sapiens; Leukemia MOLT-4; 10^−5 M; read-out: Growth inhibition percentage
Procedure: as §1, §2, §3, §4, §5

[20] = tested on: OVCAR-3; conditions: Homo sapiens; Ovarian Cancer OVCAR-3; 10^−5 M; read-out: Growth inhibition percentage
Procedure: as §1, §2, §3, §4, §5

[21] = tested on: MDA-MB-231/ATCC; conditions: Homo sapiens; Breast Cancer MDA-MB-231/ATCC; 10^−5 M; read-out: Growth inhibition percentage
Procedure: as §1, §2, §3, §4, §5

[22] = tested on: TK-10; conditions: Homo sapiens; Renal Cancer TK-10; 10^−5 M; read-out: Growth inhibition percentage
Procedure: as §1, §2, §3, §4, §5

[23] = tested on: IGROV1; conditions: Homo sapiens, IGROV-1; Ovarian Cancer IGROV1; 10^−5 M; read-out: Growth inhibition percentage
Procedure: as §1, §2, §3, §4, §5

[24] = tested on: MALME-3M; conditions: Homo sapiens; Melanoma MALME-3M; 10^−5 M; read-out: Growth inhibition percentage
Procedure: as §1, §2, §3, §4, §5

[25] = tested on: K-562; conditions: Homo sapiens, K562; Leukemia K-562; 10^−5 M; read-out: Growth inhibition percentage
Procedure: as §1, §2, §3, §4, §5

[26] = tested on: UO-31; conditions: Homo sapiens; Renal Cancer UO-31; 10^−5 M; read-out: Growth inhibition percentage
Procedure: as §1, §2, §3, §4, §5

[27] = tested on: NCI/ADR-RES; conditions: Homo sapiens; Ovarian Cancer NCI/ADR-RES; 10^−5 M; read-out: Growth inhibition percentage
Procedure: as §1, §2, §3, §4, §5

[28] = tested on: HT29; conditions: Homo sapiens, HT-29; Colon Cancer HT29; 10^−5 M; read-out: Growth inhibition percentage
Procedure: as §1, §2, §3, §4, §5

[29] = tested on: NCI-H322M; conditions: Homo sapiens; Non-Small-Cell Lung Cancer NCI-H322M; 10^−5 M; read-out: Growth inhibition percentage
Procedure: as §1, §2, §3, §4, §5

[30] = tested on: SN12C; conditions: Homo sapiens; Renal Cancer SN12C; 10^−5 M; read-out: Growth inhibition percentage
Procedure: as §1, §2, §3, §4, §5

COC(=O)C=C1SC(=NNC(=O)c2cc3ccc2CCc2ccc(cc2)CC3)N(Cc2ccccc2)C1=O [Compound 3b]
inhibition at 10 µM [1]: 82.2% | inhibition at 10 µM [2]: 19% | inhibition at 10 µM [3]: 53.9% | inhibition at 10 µM [4]: 67.3% | inhibition at 10 µM [5]: 72.2% | inhibition at 10 µM [6]: 0% | inhibition at 10 µM [7]: 34.9% | inhibition at 10 µM [8]: 55.4% | inhibition at 10 µM [9]: 147% | inhibition at 10 µM [10]: 106% | inhibition at 10 µM [11]: 84.4% | inhibition at 10 µM [12]: 56.7% | inhibition at 10 µM [13]: 84.1% | inhibition at 10 µM [14]: 14.9% | inhibition at 10 µM [15]: 10.6% | inhibition at 10 µM [16]: 50.5% | inhibition at 10 µM [17]: 36.6% | inhibition at 10 µM [18]: 24.5% | inhibition at 10 µM [19]: 98.9% | inhibition at 10 µM [20]: 79.7% | inhibition at 10 µM [21]: 43.2% | inhibition at 10 µM [22]: 4.53% | inhibition at 10 µM [23]: 57.7% | inhibition at 10 µM [24]: 11.6% | inhibition at 10 µM [25]: 81.1% | inhibition at 10 µM [26]: 55% | inhibition at 10 µM [27]: 29.6% | inhibition at 10 µM [28]: 87.6% | inhibition at 10 µM [29]: 6.7% | inhibition at 10 µM [30]: 38.8%

COC(=O)/C=C1/S/C(=N/NC(=O)c2cc3ccc2CCc2ccc(cc2)CC3)N(C2CC2)C1=O [Compound 3f]
inhibition at 10 µM [1]: 18.9% | inhibition at 10 µM [2]: 16.3% | inhibition at 10 µM [3]: 3.39% | inhibition at 10 µM [4]: 36.4% | inhibition at 10 µM [5]: 29.4% | inhibition at 10 µM [6]: 0% | inhibition at 10 µM [7]: 1.32% | inhibition at 10 µM [8]: 10.5% | inhibition at 10 µM [9]: 49.8% | inhibition at 10 µM [10]: 23% | inhibition at 10 µM [11]: 24.5% | inhibition at 10 µM [12]: 0% | inhibition at 10 µM [13]: 30% | inhibition at 10 µM [14]: 2.56% | inhibition at 10 µM [15]: 8.8% | inhibition at 10 µM [16]: 14.6% | inhibition at 10 µM [17]: 19.2% | inhibition at 10 µM [18]: 16.2% | inhibition at 10 µM [19]: 55.6% | inhibition at 10 µM [20]: 15.9% | inhibition at 10 µM [21]: 3.5% | inhibition at 10 µM [22]: 0% | inhibition at 10 µM [23]: 7.2% | inhibition at 10 µM [24]: 11.3% | inhibition at 10 µM [25]: 30.5% | inhibition at 10 µM [26]: 21.7% | inhibition at 10 µM [27]: 7.72% | inhibition at 10 µM [28]: 24% | inhibition at 10 µM [29]: 4.43% | inhibition at 10 µM [30]: 17.1%

COC(=O)C=C1SC(=NNC(=O)c2cc3ccc2CCc2ccc(cc2)CC3)N(c2ccccc2)C1=O [Compound 3a]
inhibition at 10 µM [1]: 136% | inhibition at 10 µM [2]: 30.8% | inhibition at 10 µM [3]: 50.8% | inhibition at 10 µM [4]: 76.8% | inhibition at 10 µM [5]: 99.7% | inhibition at 10 µM [6]: 0% | inhibition at 10 µM [7]: 91.5% | inhibition at 10 µM [8]: 70.6% | inhibition at 10 µM [9]: 121% | inhibition at 10 µM [10]: 138% | inhibition at 10 µM [11]: 94.7% | inhibition at 10 µM [12]: 122% | inhibition at 10 µM [13]: 58.5% | inhibition at 10 µM [14]: 27.5% | inhibition at 10 µM [15]: 41% | inhibition at 10 µM [16]: 100% | inhibition at 10 µM [17]: 46.9% | inhibition at 10 µM [18]: 24.7% | inhibition at 10 µM [19]: 97% | inhibition at 10 µM [20]: 106% | inhibition at 10 µM [21]: 67.5% | inhibition at 10 µM [22]: 84.8% | inhibition at 10 µM [23]: 94% | inhibition at 10 µM [24]: 21.2% | inhibition at 10 µM [25]: 73% | inhibition at 10 µM [26]: 41.5% | inhibition at 10 µM [27]: 68.6% | inhibition at 10 µM [28]: 113% | inhibition at 10 µM [29]: 31.5% | inhibition at 10 µM [30]: 77.5%
